Source: US5565440A, “Methane diphosphonic acid derivative, its production process and its pharmaceutical applications” (Toray Industries, Inc., priority 1992, dated 1996)

Tested on: adjuvant arthritis
Test: Adjuvant Arthritis Test
Assay type: in vivo, Lewis female rats
Details: 8th to 21st day; for Swelling inhibition rate with respect to control group, 14th day, Left / Swelling inhibition rate with respect to control group, 21st day, Left: left hind limb (adjuvant-injected); for Swelling inhibition rate with respect to control group, 14th day, Right / Swelling inhibition rate with respect to control group, 21st day, Right: right hind limb; for Bone destruction inhibition rate with respect to control group: soft X-ray score, 22nd day

Structure (SMILES)	Swelling inhibition rate with respect to control group, 14th day, Left (20 mg/kg s.c. daily) [%]	Swelling inhibition rate with respect to control group, 21st day, Left (20 mg/kg s.c. daily) [%]	Swelling inhibition rate with respect to control group, 14th day, Right (20 mg/kg s.c. daily) [%]	Swelling inhibition rate with respect to control group, 21st day, Right (20 mg/kg s.c. daily) [%]	Bone destruction inhibition rate with respect to control group (20 mg/kg s.c. daily) [%]	Swelling inhibition rate with respect to control group, 14th day, Left (3 mg/kg s.c. daily) [%]	Swelling inhibition rate with respect to control group, 21st day, Left (3 mg/kg s.c. daily) [%]	Swelling inhibition rate with respect to control group, 14th day, Right (3 mg/kg s.c. daily) [%]	Swelling inhibition rate with respect to control group, 21st day, Right (3 mg/kg s.c. daily) [%]	Bone destruction inhibition rate with respect to control group (3 mg/kg s.c. daily) [%]
CC1(C)CC(CC(O)(P(=O)(O)O)P(=O)(O)O)c2ccccc2S1 (centres unmarked) [Example 2, Monosodium 2-[4-(2,2-dimethylthiochromanyl)]-1-hydroxyethane-1,1-diphosphonate]	59.6	75.3	8.0	16.5	80.4	–	–	–	–	–
O=P(O)(O)C(O)(CC1CCSc2ccc(Cl)cc21)P(=O)(O)O (centres unmarked) [Example 4, Monosodium 2-[4-(6-chlorothiochromanyl)]-1-hydroxyethane-1,1-diphosphonate]	–	–	–	–	–	55.5	93.0	32.4	37.7	52.7
O=P(O)(O)C(O)(CC1CCSc2ccccc21)P(=O)(O)O (centres unmarked) [Example 6, Monosodium 2-(4-thiochromanyl)-1-hydroxyethane-1,1-diphosphonate]	–	–	–	–	–	26.1	62.0	27.2	35.9	38.5
O=P(O)(O)C(O)(CC1CCSc2c(Cl)cccc21)P(=O)(O)O (centres unmarked) [Example 8]	–	–	–	–	–	52.6	84.1	0.1	37.5	52.3
CCc1cccc2c1SCCC2CC(O)(P(=O)(O)O)P(=O)(O)O (centres unmarked) [Example 10, Disodium 2-[4-(8-ethylthiochromanyl)]-1-hydroxyethane-1,1-diphosphonate]	–	–	–	–	–	38.1	62.5	19.5	33.9	23.9
COc1cccc2c1SCCC2CC(O)(P(=O)(O)O)P(=O)(O)O (centres unmarked) [Example 12]	–	–	–	–	–	35.4	60.1	0.2	24.2	26.2
CSc1cccc2c1SCCC2CC(O)(P(=O)(O)O)P(=O)(O)O (centres unmarked) [Example 14, Disodium 2-[4-(8-methylthiothiochromanyl)]-1-hydroxyethane-1,1-diphosphonate]	–	–	–	–	–	53.9	80.0	2.9	31.0	46.9
